Experimental data: patent US10376481B2, “Compounds and methods for inhibiting NHE-mediated antiport in the treatment of disorders associated with fluid retention or salt overload and gastrointestinal tract disorders” (ARDELYX, INC, priority 2012, dated 2019)

What was measured:
[1] = tested on: absorption of sodium from the intestinal lumen; assay: Inhibition of intestinal sodium absorption: rat urinary sodium and fecal form 16 h post-dose; assay type: in vivo, Sprague-Dawley rats; settings: for response vs control in vivo at 10 mg/kg / FFS (fecal form score): oral gavage 10 mg/kg; for FFS (fecal form score): 16 h post-dose, scale 1-5, group average
Procedure, shortened: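 Eight-week-old Sprague-Dawley rats (n=6) dosed by oral gavage with compound or water vehicle, then kept in metabolic cages with chow and water ad libitum. At 16 h post-dose, urinary sodium measured by ion chromatography and expressed as percent of vehicle mean; fecal form scored 1–5 and averaged over two observations.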

human NHE3 = biological target: T1, human NHE3 (Homo sapiens, UniProt P48764); assay: Cell-based assay of NHE-3 activity (persistent inhibition), human; settings: PS120 fibroblasts stably expressing human NHE3, 60 min incubation then washout; for IC50: read-out: pIC50 (human Persistence assay) (converted)
T1 sequence (P48764 26-834): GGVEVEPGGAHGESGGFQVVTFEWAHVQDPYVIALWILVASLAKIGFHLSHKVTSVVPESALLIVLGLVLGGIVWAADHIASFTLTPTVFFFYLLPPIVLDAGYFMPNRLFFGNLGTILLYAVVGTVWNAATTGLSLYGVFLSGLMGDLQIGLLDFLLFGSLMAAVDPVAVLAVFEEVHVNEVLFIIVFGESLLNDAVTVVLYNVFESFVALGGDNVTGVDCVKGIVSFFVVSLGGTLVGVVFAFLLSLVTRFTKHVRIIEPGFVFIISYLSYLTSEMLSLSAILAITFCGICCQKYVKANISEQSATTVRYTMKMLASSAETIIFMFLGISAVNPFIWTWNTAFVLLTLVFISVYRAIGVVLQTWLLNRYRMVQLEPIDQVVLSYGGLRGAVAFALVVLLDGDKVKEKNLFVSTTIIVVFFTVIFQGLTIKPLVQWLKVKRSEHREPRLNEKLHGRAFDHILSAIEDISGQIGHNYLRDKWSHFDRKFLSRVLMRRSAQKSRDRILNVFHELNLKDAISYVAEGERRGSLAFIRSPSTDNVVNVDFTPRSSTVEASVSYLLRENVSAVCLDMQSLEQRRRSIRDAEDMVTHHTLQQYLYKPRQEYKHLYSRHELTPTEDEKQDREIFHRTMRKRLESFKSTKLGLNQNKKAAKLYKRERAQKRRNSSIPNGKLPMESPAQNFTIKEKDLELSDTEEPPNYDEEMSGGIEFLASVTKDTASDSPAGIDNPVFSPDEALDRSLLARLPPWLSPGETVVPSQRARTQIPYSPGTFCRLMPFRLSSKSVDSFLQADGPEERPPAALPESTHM
Protocol: The ability of compounds to inhibit human and rat NHE-3-mediated Na^+-dependent H^+ antiport after application and washout was measured using a modification of the pH sensitive dye method described above. PS120 fibroblasts stably expressing human NHE3 were obtained from Mark Donowitz (Baltimore, Md.). Opossum kidney (OK) cells were obtained from the ATCC and propagated per their instructions. The rat NHE-3 gene was introduced into OK cells via electroporation, and cells were seeded into 96 well plates and grown overnight. Medium was aspirated from the wells, cells were washed once with NaCl-HEPES buffer (100 mM NaCl, 50 mM HEPES, 10 mM glucose, 5 mM KCl, 2 mM CaCl2, 1 mM MgCl2, pH 7.4), then overlayed with NaCl-HEPES buffer containing 0-30 μM test compound. After a 60 min incubation at room temperature, the test drug containing buffer was aspirated from the cells. Following aspiration, cells were washed once with NaCl-HEPES buffer without drug, then incubated for 30 min at 37° C. with NH4Cl-HEPES buffer (20 mM NH4Cl, 80 mM NaCl, 50 mM HEPES, 5 mM KCl, 2 mM CaCl2, 1 mM MgCl2, pH 7.4) containing 5 μM BCECF-AM. Cells were washed once with Ammonium free, Na^+-free HEPES (100 mM choline, 50 mM HEPES, 10 mM glucose, 5 mM KCl, 2 mM CaCl2, 1 mM MgCl2, pH 7.4) and incubated in the same buffer for 10 minutes at room temperature to lower intracellular pH. NHE-3-mediated recovery of neutral intracellular pH was initiated (10 min after compound washout) by addition of Na-HEPES buffer. […] Changes in intracellular pH were monitored using a FLIPR Tetra® (Molecular Devices, Sunnyvale, Calif.) by excitation at λex 439 to 505 nm, and measuring BCECF fluorescence at λem 538 nm. The initial rate of the fluorescence ratio change was used as a measure of NHE-mediated Na^+/H^+ activity, and reported as the change in fluorescence ratio per minute. Initial rates were plotted as the average 2 or more replicates, and pIC50 values were estimated using GraphPad Prism.

[2] = urine 16 h post-dose, read-out: uNa Result, uNa (% of vehicle)

SMILES	% inhibition (human Persistence assay) (human NHE3)	IC50 (human NHE3)	response vs control in vivo at 10 mg/kg [1, 2]	FFS (fecal form score) [1]	response vs control in vivo at 3 mg/kg ([1]; oral gavage 3 mg/kg, urine 16 h post-dose, read-out: uNa Result, uNa (% of vehicle))
O=C(NCCCCNC(=O)NCCOCCOCCNS(=O)(=O)c1ccc(O[C@H]2c3cc(F)ccc3C[C@@H]2N2CCCCC2)cc1)NCCOCCOCCNS(=O)(=O)c1ccc(O[C@H]2c3cc(F)ccc3C[C@@H]2N2CCCCC2)cc1 [Example 23]	C (>70%)	100 to 1000 nM	> 75%	1	–
O=C(NCCCCNC(=O)NCCOCCOCCNS(=O)(=O)c1ccc(O[C@H]2c3cc(Cl)cc(F)c3C[C@@H]2N2CCCCC2)cc1)NCCOCCOCCNS(=O)(=O)c1ccc(O[C@H]2c3cc(Cl)cc(F)c3C[C@@H]2N2CCCCC2)cc1 [Example 24]	C (>70%)	< 100 nM	> 75%	–	–
CN(C)[C@H]1Cc2c(F)cc(Cl)cc2[C@@H]1Oc1ccc(S(=O)(=O)NCCOCCOCCNC(=O)NCCCCNC(=O)NCCOCCOCCNS(=O)(=O)c2ccc(O[C@H]3c4cc(Cl)cc(F)c4C[C@@H]3N(C)C)cc2)cc1 [Example 25]	C (>70%)	< 100 nM	> 75%	–	–
O=C(NCCCCNC(=O)NCCOCCOCCNS(=O)(=O)c1ccc(O[C@H]2c3cc(Cl)cc(Cl)c3C[C@@H]2N2CC[C@@H](O)C2)cc1)NCCOCCOCCNS(=O)(=O)c1ccc(O[C@H]2c3cc(Cl)cc(Cl)c3C[C@@H]2N2CC[C@@H](O)C2)cc1 [Example 30]	C (>70%)	< 100 nM	–	–	35 to 75%
CN(C)[C@H]1Cc2c(Cl)cc(Cl)cc2[C@@H]1Oc1ccc(S(=O)(=O)NCCOCCOCCNC(=O)C(C)(C)C(=O)NCCOCCOCCNS(=O)(=O)c2ccc(O[C@H]3c4cc(Cl)cc(Cl)c4C[C@@H]3N(C)C)cc2)cc1 [Example 36]	C (>70%)	100 to 1000 nM	35 to 75%	2	–

Further lines, with some results ahead:

% inhibition (human Persistence assay) (human NHE3)	IC50 (human NHE3)	SMILES	response vs control in vivo at 10 mg/kg [1, 2]	FFS (fecal form score) [1]	response vs control in vivo at 3 mg/kg ([1]; oral gavage 3 mg/kg, urine 16 h post-dose, read-out: uNa Result, uNa (% of vehicle))
B (40-70%)	< 100 nM	CN(C)[C@H]1Cc2ccccc2[C@@H]1Oc1ccc(S(=O)(=O)NCCOCCOCCNC(=O)NCCCCNC(=O)NCCOCCOCCNS(=O)(=O)c2ccc(O[C@H]3c4ccccc4C[C@@H]3N(C)C)cc2)cc1 [Example 20]	35 to 75%	–	–
C (>70%)	< 100 nM	CN(C)[C@H]1Cc2ccc(Cl)cc2[C@@H]1Oc1ccc(S(=O)(=O)NCCOCCOCCNC(=O)NCCCCNC(=O)NCCOCCOCCNS(=O)(=O)c2ccc(O[C@H]3c4cc(Cl)ccc4C[C@@H]3N(C)C)cc2)cc1 [Example 21]	> 75%	–	–
A (NHE3 <40%)	> 1000 nM	CN(C)[C@H]1Cc2ccc(F)cc2[C@@H]1Oc1ccc(S(=O)(=O)NCCOCCOCCNC(=O)NCCCCNC(=O)NCCOCCOCCNS(=O)(=O)c2ccc(O[C@H]3c4cc(F)ccc4C[C@@H]3N(C)C)cc2)cc1 [Example 22]	> 75%	–	–
